{
  "source": "patent US9216955B2",
  "about": "“Polymorphic form of Fexofenadine hydrochloride, intermediates and process for its preparation” ([…] S.R.L., priority 2010, dated 2015)",
  "settings": "solid form",
  "data": [
    {"molecule": "CC(C)(C(=O)O)c1ccc(C(O)CCCN2CCC(C(O)(c3ccccc3)c3ccccc3)CC2)cc1.Cl", "note": "(centres unmarked) [polymorph φ, 2-[4-[1-hydroxy-4-[4-(hydroxydiphenylmethyl)-1-piperidyl]-butyl]phenyl]-2-methylpropanoic acid]", "values": [
      {"measurement": "deliquescence", "value": "not deliquescent"},
      {"measurement": "hygroscopicity", "value": "not hygroscopic"}
    ]}
  ]
}
